Patent US12630604B2, “Methods of making chimeric antigen receptor-expressing cells” (Novartis AG, priority 2018, dated 2026)
Entries after “also recorded” stand apart in the source; their conditions may differ.

B1: IL7: cytokine (protein, UniProt P13232 26-177, looked up)
Interleukin-7: DCDIEGKDGKQYESVLMVSIDQLLDSMKEIGSNCLNNEFNFFKRHICDANKEGMFLFRAARKLRQFLKMNSTGDFDLHLLKVSEGTTILLNCTGQVKGRKPAALGEAQPTKSLEENKSLKEQKKLNDLCFLKRLLQEIKTCWNKILMGTKEH

Columns and labels:
Format in all cases: cell-based
T cells [1] = test: T cell culture with cytokines after αCD3/αCD28 bead activation (expansion, size, viability); settings: for T cell expansion: T cells activated with αCD3αCD28 beads at day 0 in presence of cytokine; for cell size and viability: after TCR engagement
Protocol: Previously frozen T cells were thawed and contacted with αCD3/αCD28 dynal beads (cell to bead ratio of 1 to 3) in the presence of indicated cytokines at day 0. From day 3, twice more T cell growth media (RPMI1640, 10% FBS, 2 mM L-glutamin, 100 μM non-essential amino acids, 1 mM sodium pyruvate, 10 mM Hepes, 55 μM β-mercaptoethanol, 10% FBS, and 100 U/ml of penicillin-streptomycin) was added to the plate with indicated cytokines (without cytokine, rhIL2 (501 U/ml, Novartis), IL6 (10 ng/ml, R&D systems), IL7 (10 ng/ml, Peprotech), IL15 (10 ng/ml, Peprotech), and IL21 (10 ng/ml, Peprotech)) at day 3, 5, 6, 9, 12, 15, and 18.

IL6Rβ expressing cells = test: Cell surface staining (IL6Rα/IL6Rβ and differentiation markers); settings: after TCR engagement
Excerpt: Cells were harvested at indicated time points and then stained with live/dead dye (eFluro780, eBioscience), CD3 (BioLegend, clone #: OKT3), CD4 (BioLegend, clone #: OKT4), CD8 (BD Bioscience, clone #: RPA-T8), CD45RO (BioLegend, clone #: UCHL1), CCR7 (BioLegend, clone #: G043H7), CD27 (BD Horizon, clone #: L128), CD127 (BioLegend, clone #: A019D5), CD57 (BioLegend, clone #: HCD57), CD126 (BioLegend, clone #: UV4), and CD130 (R&D Systems, clone #: 28126) antibodies. The cells were acquired by FACS Fortessa and then FlowJo program was used for data analysis.

T cells [2] = test: T cell differentiation status by flow cytometry (CCR7/CD45RO), cytokine process; settings: purified T cells cultured with cytokine 24 hours, no CD3/CD28 stimulation
Protocol: The cells were immunophenotyped for T cell differentiation status and transduction of the CAR was assessed using flow cytometry. The cells were washed, viability dye was added followed by the antibody cocktail (Table 20), and the plates were incubated for 20 minutes at room temperature. After the incubation, the cells were washed twice and fixed prior to being analyzed on the BD fortessa.

T cells [3] = test: ARM-BCMA CAR expression kinetics in vitro with or without AZT (FACS); settings: 30 μM and 100 μM doses
Protocol: In contrast to TM which measures lentiviral integration of the CAR transgene after 8-9 days, in the ARM process, the lentiviral transgene may not be fully integrated and truly expressed within 24 h post lentiviral addition, as lentiviral pseudotransduction could occur (Haas D L, et al., (2000) Mol Ther; 2(1):71-80; Galla M, et al., (2004) Mol Cell; 16(2):309-15). Therefore, the BCMA-CAR expression pattern was evaluated over time by extended culturing of ARM-BCMA CAR in vitro in the presence or absence of 3′-azido-3′-deoxythymidine (AZT) to evaluate the potential pseudotransduction versus stable integration and expression of the CAR transgene. Flow cytometry (FACS) analyses were performed to detect CAR surface expression at 24 h, 48 h, 72 h, 96 h and 168 h post T cell activation and transduction with the lentiviral vector. In some cases, ARM-BCMA CAR and an aliquot of this product were frozen down immediately upon harvest for additional characterization in other assays.

Row | Molecule | T cell expansion (T cells [1]) | cell size and viability (T cells [1]) | expansion of IL6Rβ expressing cells (IL6Rβ expressing cells) | maintenance of self-renewing / naïve T cells (CD45RO−CCR7+) (T cells [2]) | inhibition of CAR expression (T cells [3])
1 | IL-15: cytokine | enhanced T cell expansion; also recorded: the greatest enhancement | did not affect cell size and viability | enhanced expansion of IL6Rβ expressing cells | maintained self-renewing T cells in vitro | –
2 | Cc1cn([C@H]2C[C@H](N=[N+]=[N-])[C@@H](CO)O2)c(=O)[nH]c1=O [AZT, 3′-azido-3′-deoxythymidine] | – | – | – | – | effectively inhibit CAR expression
3 | B1 | enhanced T cell expansion | did not affect cell size and viability | – | – | –
